Like-named read-outs stand apart in the source and are kept apart here. No end group written: not given here.

The subject of series [1] is MRC-5 cells. Nature of the series: MTT cell viability assay, normal cells. The format is cell-based. Conditions: 24 h treatment, mean ± SEM (n = 3), read-out: IC50 against MRC-5 normal cells. As to the method:
(§1) MTT assay was performed to analyze cellular viability as previously reported by us. Briefly, A549, H3122, PC-9, H460 and MRC-5 cells (1 × 10^4 cells/well) were grown in 96-well plates and exposed to the different concentrations of Smp24 (1.25–20 μM) with 24 h. […] After incubation, 10 µL MTT (5 mg/mL) was added before incubation for 4 h at 37 °C in the dark. Subsequently, the cell medium was discarded, and 200 µL DMSO was applied into each well before the absorbance value at 490 nm was determined via the microplate reader (Tecan Company, Männedorf, Switzerland). Cell proliferation was further detected by the BeyoClick™ EdU cell proliferation kit with Alexa Fluor 488 (Beyotime Institute of Biotechnology, Shanghai, China) according to the protocol of manufacturer. In brief, A549 cells (2 × 10^5 cells/well) were grown in 6-well plates and exposed to different concentrations of Smp24 (0, 1.25, 2.5 and 5 μM) for 24 h. Then, the cells were incubated with EdU for 2 h and stained with Alexa Fluor 488 for 30 min in the dark before cell fluorescence intensity was measured by flow cytometry (Becton Dickinson Company, Franklin Lakes, NJ, USA). The experiments had been performed in triplicate.

The nature of series [2]: Acute toxicity analysis. The format is in vivo, mice. The following applies: 5 and 10 mg/kg intraperitoneal, 3 animals per group. As to the method:
To detect the acute toxicity of Smp24 in vivo, the mice were weighed and randomly divided into three groups with 3 animals each, and Smp24 (5 mg/kg and 10 mg/kg) and saline were intraperitoneally administered into mice of different groups. At 48 h after injection, serum and organ tissues from mice were collected for blood biochemical detection and organ weight measurement, respectively.

Series [3] concerns A549 xenograft. Nature of the series: A549 xenograft mice model, in vivo antitumor experiment. Set-up: species or system BALB/c nude mice. The following applies: 2 mg/kg every three days for 18 days, n = 5. As to the method: A total of 10 BALB/c nude mice of both sexes (18–20 g, 6 weeks) were acquired from the Laboratory Animal Center of Southern Medical University and were raised in a specific pathogen-free mini-barrier system of the central animal facility of Southern Medical University under controlled conditions (60% humidity, 21 ± 2 °C room temperature, and 12 h light-dark cycle). The experimental protocols (ethical approval number: L2019226 on 11 November 2019) involving animals were approved by the Animal Ethics Committee of Southern Medical University and were implemented in the light of the international regulations for animal research. The animals were placed in an induction chamber, and anesthesia was induced with 5% isoflurane before sacrificed by cervical dislocation.
First, 5 × 10^6 A549 cells with viability over 90% were inoculated subcutaneously into the right flank per mouse. Tumor growth was examined daily by palpation and the diameter was measured with calipers in two planes. Tumor volumes were counted with the following formula: volume (mm^3) = (smallest diameter)^2 × (largest diameter)/2. Then, the mice were randomized into two groups (n = 5 mice/group) for physiological saline and Smp24 treatment. […] The body weight of mice and tumor volumes were recorded daily. […]

Series [4] relates to H3122 cells. The series is described as follows: MTT cell viability assay. The following applies: 24 h treatment. The format is cell-based, human. As to the method:
as §1

The subject of series [5] is H460 cells. Nature of the series: MTT cell viability assay. Format: cell-based, human. The following applies: 24 h treatment. The protocol: as §1
The subject of series [6] is PC-9 cells. The series is described as follows: MTT cell viability assay. The format is cell-based, human. Conditions: 24 h treatment. The protocol:
as §1

The test system of series [7] is A549 cells. Nature of the series: MTT cell viability assay. Format: cell-based, human. The following applies: 24 h treatment. As to the method:
as §1

The test system of series [8] is NSCLC tumor. Conditions: subcutaneous injection, cited from earlier work. As to the method: For most peptides, despite the cogent evidence about their antitumor effects in vitro, their clinical applications have met with major obstacles owing to several issues, including their non-specific cellular cytotoxicity and rapid degradation in the blood. In order to further verify the antitumor effects of Smp24 in vivo, a tumor-burdened experiment was carried out. […] Furthermore, it ...

For series [9], the system named is A549 cells. Nature of the series: Effect of pathway inhibitors on Smp24-induced cytotoxicity (MTT and LDH release). The format is cell-based, human. The following applies: inhibitor pre-incubated 30 min (40 μM Necrostatin-1, 1 μM Cyclosporine A), then 5 μM Smp24 for 12 h. The protocol:
as §1, with “Briefly, A549, H3122, PC-9, H460 and MRC-5 cells (1 × 10^4 cells/well) were grown in 96-well plates and exposed to the different concentrations of Smp24 (1.25–20 μM) with 24 h.” left out
The LDH release assay was carried out with a commercial kit (Beyotime Institute of Biotechnology, Shanghai, China) following the manufacturer’s manual. […] Thereafter, a microplate reader (Tecan Company, Männedorf, Switzerland) was used to measure the absorbance value at 490 nm. […]

Regarding IWSFLIKAATKLLPSLFGGGKKDS [Smp24], the IC50 in series [1] was about 14.7 µM; in series [4] (MTT, mean ± SEM (n = 3), read-out: IC50 against H3122 cells), about 4.64 µM; in [5] (MTT, mean ± SEM (n = 3), read-out: IC50 against H460 cells) it was about 7.07 µM; in series [6] (MTT, mean ± SEM (n = 3), read-out: IC50 against PC-9 cells), about 6.34 µM; in series [7] (MTT, mean ± SEM (n = 3), read-out: IC50 against A549 cells) it was about 4.06 µM. Moreover, the “Animal death after the first day's injection” value in series [2] is “no animal death”. In addition, the “Heart, lung, liver, spleen and kidney weights” value in series [2] (48 h after injection) is on record as “did not change significantly”. In addition, the “Plasma AST, ALT, BUN and Cre” value in [2] (48 h after injection) is reported as “did not change significantly”. The “Weight changes of body and organs (heart, lung, liver, spleen, kidney)” value in series [3] is recorded as “did not affect”. The “Selectivity index, H3122” value in [4] (normal cells MRC-5) is listed as 3.16. Moreover, the “Selectivity index, H460” value in series [5] (normal cells MRC-5) is listed as 2.07. In addition, the “Selectivity index, PC-9” value in series [6] (normal cells MRC-5) is 2.32. Besides, the “Selectivity index, A549” value in series [7] (normal cells MRC-5) worked out at 3.61.

Consider melittin, for which the “Suppression of NSCLC tumor growth” value in [8] (0.5 mg/kg) was 27%; in [8] (10 mg/kg), 61%.

As to `CN1C(=O)C(Cc2c[nH]c3ccccc23)NC1=S` (stereo not shown) [Necrostatin-1], the “Inhibition of Smp24-induced cytotoxicity and necrosis of A549” value in series [9] is reported as “can inhibit”.

These data come from PMC9318729 (Toxins, 2022).
